Measured values published in patent publication US12365687B2 (Hoffmann-La Roche Inc., priority 2021, dated 2025).
pKi: −log10 of the molar value.

How the values were obtained:
[1] = target: human GABAA α5β2γ1 receptor (Homo sapiens (Human), UniProt P31644+Q8N1C3); assay: Radioligand binding assay for γ1-containing GABAA subtypes, [3H]RO7239181 competition (α5β2γ1)
[2] = target: human GABAA α2β2γ1 receptor (Homo sapiens (Human), UniProt P47869+Q8N1C3); assay: Radioligand binding assay for γ1-containing GABAA subtypes, [3H]RO7239181 competition (α2β2γ1)
[3] = target: α2β2γ1 GABAA receptor subtype (Homo sapiens (Human), UniProt P47869+Q8N1C3); assay: Two-electrode voltage clamp electrophysiology in Xenopus oocytes expressing GABAA receptors (modulation of GABA EC20 current); type: cell-based; settings: for Efficacy (GABA)%: % modulation of GABA EC20 = 100*(Fold increase-1), α2β2γ1 oocytes, compound at approx. 30-fold Ki; for Fold increase h-GABA-A α2β2γ1 oocyte @ 30-fold Ki: Xenopus oocytes expressing α2β2γ1, compound at approx. 30-fold its Ki α2β2γ1, GABA EC20 current
Outline: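 Two-electrode voltage clamp at −80 mV, room temperature, 3-5 days after mRNA injection into oocytes. GABA applied at EC20 for 1.5 min, twice, with compound during second application; at least 3 oocytes per concentration. Efficacy = extremum of point-by-point current ratio, expressed as 100×(fold increase−1).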

[4] = target: human GABAA α1β3γ2 receptor (Homo sapiens (Human), UniProt P14867+P18507); assay: Radioligand binding assay for γ2-containing GABAA subtypes, [3H]Flumazenil competition (α1β3γ2); settings: for γ2/γ1 Selectivity Ratio: Ki α1β3γ2 (nM)/Ki α2β2γ1 (nM); for LogSel: Log[Ki α1β3γ2 (nM)/Ki α2β2γ1 (nM)]
[5] = Ki h-GABAA α2β2γ1, [3H]RO7239181 competition binding, human GABAA α2β2γ1
[6] = Ki h-GABAA α2β2γ1, displacement of [3H]RO7239181, membranes of HEK293F cells expressing human receptors, means of two determinations

SMILES	pKi [1]	pKi [2, 5]	pKi [2, 6]	Efficacy (GABA)% [3] [%]	Fold increase h-GABA-A α2β2γ1 oocyte @ 30-fold Ki [3]	pKi [4]	γ2/γ1 Selectivity Ratio [4]	LogSel [4]
C[C@@H]1N=C(c2c(F)cccc2F)c2c(ccc(Cl)c2Cl)-n2nc(C(=O)N3CC[C@@H](F)C3)nc21 [Example 76, [(4S)-7,8-dichloro-6-(2,6-difluorophenyl)-4-methyl-4H-[1,2,4]triazolo[1,5-a][1,4]benzodiazepin-2-yl]-[(3R)-3-fluoropyrrolidin-1-yl]methanone]	8.79	8.21	8.21	52	1.52	6.01	157.7	2.20
COCCNC(=O)c1nc2n(n1)-c1ccc(Cl)c(Cl)c1C(c1c(F)cccc1F)=N[C@H]2C [Example 28, (4S)-7,8-dichloro-6-(2,6-difluorophenyl)-N-(2-methoxyethyl)-4-methyl-4H-[1,2,4]triazolo[1,5-a][1,4]benzodiazepine-2-carboxamide]	8.97	8.41	8.41	56	1.56	6.24	147.4	2.17
CC(=O)NCc1nc2n(n1)-c1ccc(Cl)c(Cl)c1C(c1c(F)cccc1F)=N[C@H]2C [Example 67, N-[[(4S)-7,8-dichloro-6-(2,6-difluorophenyl)-4-methyl-4H-[1,2,4]triazolo[1,5-a][1,4]benzodiazepin-2-yl]methyl]acetamide]	9.10	8.28	8.28	47	1.47	6.30	96.5	1.98
C[C@@H]1N=C(c2ncccc2F)c2c(ccc(Cl)c2Cl)-n2nc(C(=O)N3CC4(CCOC4)C3)nc21 [Example 100, [(4S)-7,8-dichloro-6-(3-fluoro-2-pyridyl)-4-methyl-4H-[1,2,4]triazolo[1,5-a][1,4]benzodiazepin-2-yl]-(6-oxa-2-azaspiro[3.4]octan-2-yl)methanone]	8.12	7.38	7.38	128	2.28	5.04	219.5	2.34
COC1CN(C(=O)Nc2nc3n(n2)-c2ccc(Cl)c(Cl)c2C(c2c(F)cccc2F)=N[C@H]3C)C1 [Example 60, 3-methoxy-N-[(4S)-7,8-dichloro-6-(2,6-difluorophenyl)-4-methyl-4H-[1,2,4]triazolo[1,5-a][1,4]benzodiazepin-2-yl]azetidine-1-carboxamide]	8.83	7.91	7.91	107	2.07	6.22	49.1	1.69
CC1CN(C(=O)c2nc3n(n2)-c2ccc(C(F)(F)F)c(Cl)c2C(c2ncccc2F)=N[C@H]3C)C1 [Example 135, [(4S)-7-chloro-6-(3-fluoro-2-pyridyl)-4-methyl-8-(trifluoromethyl)-4H-[1,2,4]triazolo[1,5-a][1,4]benzodiazepin-2-yl]-(3-methylazetidin-1-yl)methanone]	8.03	7.30	7.30	118	2.18	< 4.52	592.7	2.77
C[C@@H]1N=C(c2c(F)cccc2F)c2c(ccc(Cl)c2Cl)-n2ncnc21 [Example 15, (4S)-7,8-dichloro-6-(2,6-difluorophenyl)-4-methyl-4H-[1,2,4]triazolo[1,5-a][1,4]benzodiazepine]	9.40	8.22	8.22	62	1.62	6.56	46.3	1.67
C[C@@H]1N=C(c2c(F)cccc2F)c2c(ccc(Cl)c2Cl)-n2nc(C(=O)NC3(C#N)CC3)nc21 [Example 61, (4S)-7,8-dichloro-N-(1-cyanocyclopropyl)-6-(2,6-difluorophenyl)-4-methyl-4H-[1,2,4]triazolo[1,5-a][1,4]benzodiazepine-2-carboxamide]	8.84	8.38	8.38	99	1.99	6.23	140.0	2.15
C[C@@H]1N=C(c2c(F)cccc2F)c2c(ccc(Cl)c2Cl)-n2cc(C(=O)N3CCC3)nc21 [Example 70, azetidin-1-yl-[(4S)-7,8-dichloro-6-(2,6-difluorophenyl)-4-methyl-4H-imidazo[1,2-a][1,4]benzodiazepin-2-yl]methanone]	8.97	7.73	7.73	73	1.73	6.30	26.7	1.43
C[C@@H]1N=C(c2ncccc2F)c2c(ccc(C(F)(F)F)c2Cl)-n2nc(N3CCOC3=O)nc21 [Example 147, 3-[(4S)-7-chloro-6-(3-fluoro-2-pyridyl)-4-methyl-8-(trifluoromethyl)-4H-[1,2,4]triazolo[1,5-a][1,4]benzodiazepin-2-yl]oxazolidin-2-one]	8.13	7.31	7.31	113	2.13	4.90	255.4	2.41
C[C@@H]1N=C(c2c(F)cccc2F)c2c(ccc(Cl)c2Cl)-n2nc(C3COC3)nc21 [Example 81, (4S)-7,8-dichloro-6-(2,6-difluorophenyl)-4-methyl-2-(oxetan-3-yl)-4H-[1,2,4]triazolo[1,5-a][1,4]benzodiazepine]	8.79	8.19	8.19	53	1.53	6.25	87.4	1.94
C[C@@H]1N=C(c2c(F)cccc2F)c2c(ccc(Cl)c2Cl)-n2nc(C(=O)NCCF)nc21 [Example 30, (4S)-7,8-dichloro-6-(2,6-difluorophenyl)-N-(2-fluoroethyl)-4-methyl-4H-[1,2,4]triazolo[1,5-a][1,4]benzodiazepine-2-carboxamide]	8.86	8.14	8.14	78	1.78	6.18	91.5	1.96
C[C@@H]1N=C(c2c(F)cccc2F)c2c(ccc(C(F)(F)F)c2Cl)-n2nc(NC(=O)NC3COC3)nc21 [Example 125, 1-[(4S)-7-chloro-6-(2,6-difluorophenyl)-4-methyl-8-(trifluoromethyl)-4H-[1,2,4]triazolo[1,5-a][1,4]benzodiazepin-2-yl]-3-(oxetan-3-yl)urea]	8.77	8.21	8.21	73	1.73	5.79	259.0	2.41
